Results from patent US9669199B2, “Biosynchronous transdermal drug delivery for longevity, anti-aging, fatigue management, obesity, weight loss, weight management, delivery of nutraceuticals, and the treatment of hyperglycemia, alzheimer's disease, sleep disorders, parkinson's disease, aids, epilepsy, attention deficit disorder, …” (Chrono Therapeutics Inc., priority 2004, dated 2017).
Like-named read-outs stand apart in the source and are kept apart here.

Tests used:
[1] = tested on: sleep-deprived F-117 pilots; details: 300 mg in three divided 100-mg doses; cited from earlier work
helicopter pilots = details: 600 mg in three doses, 8 hours of sleep in an 88 hour period; cited from earlier work
[2] = oral dosing with 5 mg or transdermally with 39 mg; cited from earlier work
[3] = tested on: children aged 7 to 15 with ADHD; details: cited from earlier work; for ADHD symptoms and global ratings: parent and clinician ratings, 9 weeks
[4] = in vivo; cited from earlier work
arthritis = details: night versus 8:00 am; cited from earlier work
smoking = details: in vivo; cited from earlier work
[5] = in vivo; cited from earlier work; remark: listed apart in the source
rhesus monkeys = details: sleep deprivation; cited from earlier work
[6] = tested on: humans subjected to simulated night shift work; details: cited from earlier work
[7] = low, medium and high concentrations, 16 hours, 12 human subjects
Description: The device, described herein, was tested on 12 healthy male volunteers for an open, three-periods, single center, dose-escalation study using nicotine as the model compound.

[8] = human cadaver skin dermatomed to 0.5 mm, 10 cm^2, 100 mg/ml in ethanol/water 1/1, 200 ul doses, EVA membrane
Description: The area of skin permeation was 10 cm^2. […] Each time, 200 µl of formulation was dispensed on a 10 cm^2 surface area of interface of diffusion, separated from the skin by the EVA membrane. […] Additionally, the dose quantity was strictly controlled and monitored. Drug flux samples were obtained using a flow-through Franz cell permeation system with samples collected every 15 minutes. Hourly time point samples were analyzed and recorded. Samples were analyzed by UV/Vis spectrophotometry.

[9] = evening versus morning; cited from earlier work
[10] = tested on: metastatic renal cell carcinoma; details: continuous infusion, 70% of the daily dose between 15:00 h and 21:00 h; cited from earlier work

For `NC(=O)C[S+]([O-])C(c1ccccc1)c1ccccc1` (stereo not shown) [modafinil], the “flight control accuracy sustained to within percent of baseline levels” value [1] is listed as “about 27%” and the alertness of pilots (helicopter pilots) is listed as “can be used to keep pilots alert”.

In the case of `CCN(CC)CC#CCOC(=O)C(O)(c1ccccc1)C1CCCCC1` (stereo not shown) [oxybutynin], the “mean maximum blood plasma concentration” value [2] is listed as 3 ng/mL.

In the case of `CNCC[C@@H](Oc1ccccc1C)c1ccccc1` [atomoxetine], the tolerability ([3]; in vivo) is listed as “well tolerated”, the “ADHD symptoms and global ratings” value [3] is listed as “associated with reductions in ADHD symptoms and improved global ratings” and the half-life average [4] is listed as 3.12 h. For the same compound, the “time of peak plasma concentration after dosing” value [4] was 1 to 2 h.

In the case of `COC(=O)C(c1ccccc1)C1CCCCN1` (stereo not shown) [methylphenidate], the tolerability ([3]; atomoxetine twice daily, methylphenidate 2 or 3 times daily) is listed as “well tolerated” and the “ADHD symptoms and global ratings” value [3] is listed as “associated with reductions in ADHD symptoms and improved global ratings”.

For `COc1ccc2c(c1)c(CC(=O)O)c(C)n2C(=O)c1ccc(Cl)cc1` [indomethacin], the “efficacy and patient compliance by time of dosing” value (arthritis) is given as “better efficacy and patient compliance when dosed at night than when dosed at 8:00 am”.

For `c1cnc2cc3c(cc2n1)[C@@H]1CNC[C@H]3C1` [varenicline], the “chances of quitting smoking” value (smoking) is listed as “can more than double the chances of quitting smoking”.

In the case of `O=C(C[S+]([O-])C(c1ccccc1)c1ccccc1)NO` (stereo not shown) [Adrafinil], the half-life [5] is given as “about 60 minutes” and the “time to peak concentration” value [5] is given as “about 60 minutes”.

For `O=C(c1ccc2nonc2c1)N1CCOCC1` [CX717], the “performance after receiving the drug” value (rhesus monkeys) is given as “performed faster and better” and the cognitive performance [6] is given as “did not improve cognitive performance”.

With `CN1CCCC1c1cccnc1` (stereo not shown) [nicotine] the “blood plasma concentration profile” value [7] was “clear and distinct peaks and troughs of therapeutically effective and well-targeted blood plasma concentration levels” and the “maximum transdermal flux value” [8] was 160 ng/cm^2/hr.

For `CCCC(CCC)C(=O)O` [valproate], the “absorption by time of day” value [9] is given as “absorb it more slowly and less efficiently when they take it in the evening than in the morning”.

For `O=c1[nH]c(=O)n([C@H]2C[C@H](O)[C@@H](CO)O2)cc1F` [fluorodeoxyuridine], the objective response [10] is given as 29%.
